# Measurements taken from patent US9649309B2 (priority 2014, dated 2017).
# Experiments:
# [1] = biological target: Tyro3 (Homo sapiens (Human), UniProt Q06418); conditions: read-out: IC50 Tyro3
# [2] = biological target: Axl (Homo sapiens (Human), UniProt P30530); conditions: read-out: IC50 Axl
# Chain of Axl (P30530 26-894 limits assumed): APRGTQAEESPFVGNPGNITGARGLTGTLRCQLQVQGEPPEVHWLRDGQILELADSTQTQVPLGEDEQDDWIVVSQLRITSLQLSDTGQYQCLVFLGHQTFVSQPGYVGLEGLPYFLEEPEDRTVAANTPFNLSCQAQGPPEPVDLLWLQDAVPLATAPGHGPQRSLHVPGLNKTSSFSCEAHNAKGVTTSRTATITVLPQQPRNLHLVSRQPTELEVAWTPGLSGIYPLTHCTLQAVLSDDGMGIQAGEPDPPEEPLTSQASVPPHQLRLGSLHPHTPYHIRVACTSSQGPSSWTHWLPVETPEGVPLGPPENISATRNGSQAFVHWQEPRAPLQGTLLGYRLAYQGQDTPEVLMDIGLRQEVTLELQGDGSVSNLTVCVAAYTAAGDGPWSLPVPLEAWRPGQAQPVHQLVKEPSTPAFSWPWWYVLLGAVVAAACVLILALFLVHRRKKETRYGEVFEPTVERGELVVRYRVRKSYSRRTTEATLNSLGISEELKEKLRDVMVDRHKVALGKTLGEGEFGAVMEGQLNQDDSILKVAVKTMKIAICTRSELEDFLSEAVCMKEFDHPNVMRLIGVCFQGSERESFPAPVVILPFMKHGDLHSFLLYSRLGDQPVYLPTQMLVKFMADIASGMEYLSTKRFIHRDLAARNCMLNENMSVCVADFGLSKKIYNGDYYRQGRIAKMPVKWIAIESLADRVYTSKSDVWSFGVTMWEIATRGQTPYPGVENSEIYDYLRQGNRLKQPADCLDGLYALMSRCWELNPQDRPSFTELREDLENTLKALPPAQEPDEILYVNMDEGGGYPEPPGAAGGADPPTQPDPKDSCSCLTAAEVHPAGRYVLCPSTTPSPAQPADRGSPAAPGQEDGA
# Chain of Tyro3 (Q06418 41-890 limits assumed): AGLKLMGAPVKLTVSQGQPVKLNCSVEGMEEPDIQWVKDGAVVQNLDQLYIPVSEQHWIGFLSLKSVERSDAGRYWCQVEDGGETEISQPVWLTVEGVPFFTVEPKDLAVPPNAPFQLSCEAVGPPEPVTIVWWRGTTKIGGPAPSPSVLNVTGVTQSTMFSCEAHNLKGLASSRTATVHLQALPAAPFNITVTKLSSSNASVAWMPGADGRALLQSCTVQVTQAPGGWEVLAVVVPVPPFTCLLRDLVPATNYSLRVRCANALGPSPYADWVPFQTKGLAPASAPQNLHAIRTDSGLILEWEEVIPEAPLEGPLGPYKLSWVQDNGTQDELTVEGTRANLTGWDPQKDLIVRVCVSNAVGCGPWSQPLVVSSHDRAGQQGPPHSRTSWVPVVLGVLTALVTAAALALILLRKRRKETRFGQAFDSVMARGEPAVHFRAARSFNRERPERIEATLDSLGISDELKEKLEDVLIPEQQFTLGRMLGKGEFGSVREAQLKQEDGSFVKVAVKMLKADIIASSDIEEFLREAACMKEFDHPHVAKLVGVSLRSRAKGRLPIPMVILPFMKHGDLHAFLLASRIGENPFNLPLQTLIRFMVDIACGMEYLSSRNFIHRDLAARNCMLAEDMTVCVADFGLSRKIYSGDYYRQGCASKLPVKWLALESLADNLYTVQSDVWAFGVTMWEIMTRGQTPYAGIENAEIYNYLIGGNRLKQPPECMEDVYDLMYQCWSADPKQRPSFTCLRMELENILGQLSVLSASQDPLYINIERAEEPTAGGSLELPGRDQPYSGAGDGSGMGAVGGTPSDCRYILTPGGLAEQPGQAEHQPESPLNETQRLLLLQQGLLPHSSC
Structure (SMILES),IC50 [1] [µM],IC50 [2] [µM]
CCCCNc1ncc(-c2nc(C(N)=O)cs2)c(N[C@H]2CC[C@H](O)CC2)n1 [UNC3136A],0.076,0.237
CCCCNc1ncc(C(=O)NC2CCN(CC3CCCCC3)CC2)c(N[C@H]2CC[C@H](O)CC2)n1 [UNC2877A],0.23,0.245
OCCCCNc1ncc(-c2nccs2)c(N[C@H]2CC[C@H](O)CC2)n1 [UNC3146A],1.01,0.984
CCCCNc1ncc(-c2cc(Nc3cccc(C(C)C)c3)ncn2)c(N[C@H]2CC[C@H](O)CC2)n1 [UNC4323A],0.619,30
CCCCNc1ncc(-c2cncc(NC3CCCCC3)n2)c(N[C@H]2CC[C@H](O)CC2)n1 [UNC3137A],0.412,1.23
CCCCNc1ncc(-c2cc(Cl)c(CN3CCCC3)cn2)c(N[C@H]2CC[C@H](O)CC2)n1 [UNC4222A],0.016,0.039
CCCCNc1ncc(-c2ccc(C3(N4CCOCC4)CCC3)cn2)c(NC2CCC(O)CC2)n1 (centres unmarked) [UNC3666A],0.011,0.052
CCCCNc1ncc(-c2nc(C(F)(F)F)cs2)c(N[C@H]2CC[C@H](O)CC2)n1 [UNC3149A],30,30
CCCCNc1ncc(C(=O)NCc2ccc(-n3cccc3)cc2)c(N[C@H]2CC[C@H](O)CC2)n1 [UNC2880A],0.559,0.812
CCCCNc1ncc(-c2cc(Nc3cccc(C(C)(C)C)c3)ncn2)c(N[C@H]2CC[C@H](O)CC2)n1 [UNC4333A],0.867,30
CCCCNc1ncc(C(=O)NCC2CCN(C(C)C)CC2)c(N[C@H]2CC[C@H](O)CC2)n1 [UNC4289A],0.178,0.42
CCCCNc1ncc(-c2nc(CO)cs2)c(N[C@H]2CC[C@H](O)CC2)n1 [UNC3135A],0.165,0.304
CCCCNc1ncc(-c2ccc(C3=CCNCC3)cn2)c(N[C@H]2CC[C@H](O)CC2)n1 [UNC4354A],0.024,0.027
CCCCNc1ncc(C(=O)NCc2ccc(-c3ccccc3OC)nc2)c(N[C@H]2CC[C@H](O)CC2)n1 [UNC4255A],0.156,0.336
CCCCNc1ncc(-c2ccc(CCN3CCCN(C)CC3)cn2)c(N[C@H]2CC[C@H](O)CC2)n1 [UNC4279A],0.042,0.067
CCCCNc1ncc(-c2ccc(NC(=O)C3CC3)cn2)c(NC2CCC(O)CC2)n1 (centres unmarked) [UNC2711A],0.265,0.644
CCCCNc1ncc(-c2cnc(SC)cn2)c(N[C@H]2CC[C@H](O)CC2)n1 [UNC3074A],0.255,0.754
CCCCNc1ncc(-c2ccc(NC(=O)c3ccccc3)cn2)c(NC2CCC(O)CC2)n1 (centres unmarked) [UNC2713A],0.325,0.522
CCCCNc1ncc(-c2nc(C(=O)O)cs2)c(N[C@H]2CC[C@H](O)CC2)n1 [UNC3139A],2.55,4.54

Structure (SMILES),IC50 [1] [µM],IC50 [2] [µM]
CCCCNc1ncc(-c2ccc(CNC3CC4CCC(C3)N4C)cn2)c(N[C@H]2CC[C@H](O)CC2)n1 (some centres unmarked) [UNC4165A],0.008,0.018
CCCCNc1ncc(C(=O)NCC2CCN(C3CCCCC3)CC2)c(N[C@H]2CC[C@H](O)CC2)n1 [UNC4302A],0.153,0.292
CCCCNc1ncc(-c2cn(C)cn2)c(N[C@H]2CC[C@H](O)CC2)n1 [UNC3116A],3.94,10
CCCCNc1ncc(C(=O)NCc2ccc(Cn3ccnc3)cc2)c(N[C@H]2CC[C@H](O)CC2)n1 [UNC3144A],0.36,0.487
CCCCNc1ncc(-c2ccc(CN3C4CCCC3CC4)cn2)c(N[C@H]2CC[C@H](O)CC2)n1 [UNC4169A],0.0039,0.0096
CCCCNc1ncc(-c2ccc(N3CCCC3)nn2)c(N[C@H]2CC[C@H](O)CC2)n1 [UNC3044A],0.377,0.912
CCCCNc1ncc(C(=O)NCc2cccc3ccccc23)c(N[C@H]2CC[C@H](O)CC2)n1 [UNC2763A],0.502,1.09
CCCCNc1ncc(C(=O)NCc2cccs2)c(N[C@H]2CC[C@H](O)CC2)n1 [UNC2762A],0.148,0.22
CCCCNc1ncc(-c2ccc(NC(=O)C3CCC3)cn2)c(NC2CCC(O)CC2)n1 (centres unmarked) [UNC2790A],0.338,0.835
CCCCNc1ncc(C(=O)NCc2ccc(-c3c(C)noc3C)nc2)c(N[C@H]2CC[C@H](O)CC2)n1 [UNC4260A],0.256,0.602
CCCCNc1ncc(-c2ccc(NC(=O)C3CCCCC3)cn2)c(NC2CCC(O)CC2)n1 (centres unmarked) [UNC2712A],0.209,0.364
"CCCCNc1ncc(-c2ccc(CC3CCNC3)cn2)c(N[C@H]2CC[C@H](O)CC2)n1 (stereo partly drawn) [UNC4386A, trans-4-((2-(butylamino)-5-(5-(pyrrolidin-3-ylmethyl)pyridin-2-yl)pyrimidin-4-yl)amino)cyclohexan-1-ol]",0.053,0.053
CCCCNc1ncc(-c2ccc(CNC34CC5CC(CC(C5)C3)C4)cn2)c(N[C@H]2CC[C@H](O)CC2)n1 [UNC4166A],0.0094,0.013
CCCCNc1ncc(C(=O)NCc2cncnc2)c(N[C@H]2CC[C@H](O)CC2)n1 [UNC4307A],0.217,0.471
CCCCNc1ncc(C(=O)NCC2CCN(c3ccccc3)CC2)c(N[C@H]2CC[C@H](O)CC2)n1 [UNC4304A],0.333,0.664
CCCCNc1ncc(C(=O)NCc2ccc(-n3ccnc3-c3ccccc3)cc2)c(N[C@H]2CC[C@H](O)CC2)n1 [UNC2957A],0.975,0.593
CCCCNc1ncc(-c2ccc(OC)nn2)c(N[C@H]2CC[C@H](O)CC2)n1 [UNC3049A],0.221,4.44
CCCCNc1ncc(-c2ncc(C)s2)c(N[C@H]2CC[C@H](O)CC2)n1 [UNC3140A],0.322,0.395

# More lines, in order of falling IC50 [1], values ahead:
IC50 [1] [µM],IC50 [2] [µM],Structure (SMILES)
30,30,CCCCNc1ncc(-c2cn(C(c3ccccc3)(c3ccccc3)c3ccccc3)cn2)c(N[C@H]2CC[C@H](O)CC2)n1 [UNC3117A]
9.62,30,CCCCNc1ncc(-c2nccnc2N)c(N[C@H]2CC[C@H](O)CC2)n1 [UNC3119A]
0.734,1.76,CCCCNc1ncc(-c2cc(O)c(CN3CCCC3)cn2)c(N[C@H]2CC[C@H](O)CC2)n1 [UNC4230A]
0.488,0.32,CCCCNc1ncc(-c2ccc(C3=CCC(CN(C)C)CC3)cn2)c(N[C@H]2CC[C@H](O)CC2)n1 (some centres unmarked) [UNC4387A]
0.412,1.2,CCCCNc1ncc(C(=O)NCC(=O)N2CCCCC2)c(N[C@H]2CC[C@H](O)CC2)n1 [UNC2604A]
0.409,5.3,CCCC1(Nc2ncc(-c3ccc(CN4CCN(C)CC4)cn3)c(NC3CCC(O)CC3)n2)CC1 (centres unmarked) [UNC3668A]
0.384,1.09,CCCCNc1ncc(-c2cc(SC)nc(C)n2)c(N[C@H]2CC[C@H](O)CC2)n1 [UNC3130A]
0.363,30,CCCCNc1ncc(-c2ccccn2)c(Nc2ccc(O)cc2)n1 [UNC2998A]
0.276,0.196,CCCCNc1ncc(C(=O)NCc2cncs2)c(N[C@H]2CC[C@H](O)CC2)n1 [UNC4344A]
0.253,0.572,CCCCNc1ncc(C(=O)NCc2ccc3ccccc3n2)c(N[C@H]2CC[C@H](O)CC2)n1 [UNC4286A]
0.244,0.489,CCCCNc1ncc(C(=O)NCc2ccc(-c3cccc(OC)c3)nc2)c(N[C@H]2CC[C@H](O)CC2)n1 [UNC4246A]
0.234,0.513,CCCCNc1ncc(-c2cc(Nc3ccc(OC)cc3)ncn2)c(N[C@H]2CC[C@H](O)CC2)n1 [UNC4269A]
0.2,0.136,CCCCNc1ncc(C(=O)NCc2ccc(-n3cnc(C)c3)cc2)c(N[C@H]2CC[C@H](O)CC2)n1 [UNC2956A]
0.195,0.47,CCCCNc1ncc(C(=O)NCc2ccc(-c3ccccc3)nc2)c(N[C@H]2CC[C@H](O)CC2)n1 [UNC4234A]
0.184,0.409,CCCCNc1ncc(C(=O)Nc2ccc(CCN3CCOCC3)cc2)c(N[C@H]2CC[C@H](O)CC2)n1 [UNC2805A]
0.176,0.419,CCCCNc1ncc(-c2ccc(NC3CC3)nn2)c(N[C@H]2CC[C@H](O)CC2)n1 [UNC3069A]
0.145,0.667,CCCCNc1ncc(C(=O)NC2CCN(Cc3ccc(N4CCOCC4)cc3)CC2)c(N[C@H]2CC[C@H](O)CC2)n1 [UNC2918A]
0.13,0.314,CCCCNc1ncc(C(=O)NC2CCN(CCc3ccccc3)CC2)c(N[C@H]2CC[C@H](O)CC2)n1 [UNC2800A]
0.077,0.255,CCCCNc1ncc(-c2cc(NCC)ncn2)c(N[C@H]2CC[C@H](O)CC2)n1 [UNC3113A]
0.071,0.096,CCCCNc1ncc(-c2ncc(CN3CCN(C)CC3)s2)c(N[C@H]2CC[C@H](O)CC2)n1 [UNC3121A]
0.068,0.122,CCCCNc1ncc(-c2ccc(CCCN3CCCC3)cn2)c(N[C@H]2CC[C@H](O)CC2)n1 [UNC4220A]
0.056,0.137,"CCCCNc1ncc(-c2ccc(CC3CCNCC3)cn2)c(N[C@H]2CC[C@H](O)CC2)n1 [UNC4335A, trans-4-((2-(butylamino)-5-(5-(piperidin-4-ylmethyl)pyridin-2-yl)pyrimidin-4-yl)amino)cyclohexan-1-ol]"
0.043,0.104,CCCCNc1ncc(-c2ccc(CCN3CCCC3)cn2)c(N[C@H]2CC[C@H](O)CC2)n1 [UNC4221A]
0.043,0.123,CCCCNc1ncc(-c2cc(N)ncn2)c(N[C@H]2CC[C@H](O)CC2)n1 [UNC3072A]
0.02,0.042,CCCCNc1ncc(-c2ccc(C=C3CCN(C)CC3)cn2)c(N[C@H]2CC[C@H](O)CC2)n1 [UNC4338A]
0.019,0.032,CCCCNc1ncc(-c2ccc(CN3C[C@@H]4C[C@H]3CN4)cn2)c(NC2CCC(O)CC2)n1 (some centres unmarked) [UNC4112A]
0.013,0.04,CCCCNc1ncc(-c2ccc(C=C3CCNCC3)cn2)c(N[C@H]2CC[C@H](O)CC2)n1 [UNC4336A]
